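Cultured in 96-well plates, cells were exposed to test compound for 48 hours across five concentrations. The concentration for 50% growth inhibition is given as GI50. The concentration for full growth arrest is given as TGI.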
Key:
Assay in all cases: growth of human tumour cells (NCI), 48 h
786-0 renal = test system: 786-0 renal
A549 NSCLC = test system: A549 NSCLC
ACHN renal = test system: ACHN renal
BT-549 breast = test system: BT-549 breast
CAKI-1 renal = test system: CAKI-1 renal
DU-145 prostate = test system: DU-145 prostate
HCC-2998 colon = test system: HCC-2998 colon
HCT-116 colon = test system: HCT-116 colon
HL-60(TB) leukemia = test system: HL-60(TB) leukemia
HOP-92 NSCLC = test system: HOP-92 NSCLC
KM12 colon = test system: KM12 colon
LOX IMVI melanoma = test system: LOX IMVI melanoma
M14 melanoma = test system: M14 melanoma
MALME-3M melanoma = test system: MALME-3M melanoma
MDA-MB-231 breast = test system: MDA-MB-231 breast
MDA-MB-435 = test system: MDA-MB-435
NCI-H226 lung = test system: NCI-H226 lung
OVCAR-3 ovarian = test system: OVCAR-3 ovarian
OVCAR-5 ovarian = test system: OVCAR-5 ovarian
PC-3 prostate = test system: PC-3 prostate
RPMI-8226 leukemia = test system: RPMI-8226 leukemia
RXF 393 renal = test system: RXF 393 renal
SF-268 CNS = test system: SF-268 CNS
SF-295 CNS = test system: SF-295 CNS
SF-539 CNS = test system: SF-539 CNS
SK-MEL-2 melanoma = test system: SK-MEL-2 melanoma
SK-MEL-28 melanoma = test system: SK-MEL-28 melanoma
SK-MEL-5 melanoma = test system: SK-MEL-5 melanoma
SN12C renal = test system: SN12C renal
SNB-19 CNS = test system: SNB-19 CNS
SNB-75 CNS = test system: SNB-75 CNS
TK-10 renal = test system: TK-10 renal
UACC-257 melanoma = test system: UACC-257 melanoma
UACC-62 melanoma = test system: UACC-62 melanoma
UO-31 renal = test system: UO-31 renal
NCI-H23 lung = test system: NCI-H23 lung

Structure (SMILES): Cn1cnnc1[S-].[Au+].c1ccc([PH+](c2ccccc2)c2ccccc2)cc1
- GI50 (786-0 renal): 1720 nM
- TGI (786-0 renal): 3150 nM
- GI50 (A549 NSCLC): 2920 nM
- TGI (A549 NSCLC): 21300 nM
- GI50 (ACHN renal): 1770 nM
- TGI (ACHN renal): 3160 nM
- GI50 (BT-549 breast): 1410 nM
- TGI (BT-549 breast): 2760 nM
- GI50 (CAKI-1 renal): 1500 nM
- TGI (CAKI-1 renal): 2820 nM
- GI50 (DU-145 prostate): 1340 nM
- TGI (DU-145 prostate): 2660 nM
- GI50 (HCC-2998 colon): 1800 nM
- TGI (HCC-2998 colon): 3230 nM
- GI50 (HCT-116 colon): 1720 nM
- TGI (HCT-116 colon): 3260 nM
- GI50 (HL-60(TB) leukemia): 1480 nM
- TGI (HL-60(TB) leukemia): 4440 nM
- GI50 (HOP-92 NSCLC): 1880 nM
- TGI (HOP-92 NSCLC): 3310 nM
- GI50 (KM12 colon): 1710 nM
- TGI (KM12 colon): 3220 nM
- GI50 (LOX IMVI melanoma): 1350 nM
- TGI (LOX IMVI melanoma): 2710 nM
- GI50 (M14 melanoma): 1400 nM
- TGI (M14 melanoma): 2990 nM
- GI50 (MALME-3M melanoma): 1490 nM
- TGI (MALME-3M melanoma): 2910 nM
- GI50 (MDA-MB-231 breast): 1670 nM
- TGI (MDA-MB-231 breast): 3080 nM
- GI50 (MDA-MB-435): 1570 nM
- TGI (MDA-MB-435): 2980 nM
- GI50 (NCI-H226 lung): 2750 nM
- TGI (NCI-H226 lung): 9080 nM
- GI50 (OVCAR-3 ovarian): 1790 nM
- TGI (OVCAR-3 ovarian): 3180 nM
- GI50 (OVCAR-5 ovarian): 1880 nM
- TGI (OVCAR-5 ovarian): 3490 nM
- GI50 (PC-3 prostate): 1520 nM
- TGI (PC-3 prostate): 3020 nM
- GI50 (RPMI-8226 leukemia): 1690 nM
- TGI (RPMI-8226 leukemia): 5390 nM
- GI50 (RXF 393 renal): 1420 nM
- TGI (RXF 393 renal): 2800 nM
- GI50 (SF-268 CNS): 1700 nM
- TGI (SF-268 CNS): 3440 nM
- GI50 (SF-295 CNS): 1850 nM
- TGI (SF-295 CNS): 3820 nM
- GI50 (SF-539 CNS): 1610 nM
- TGI (SF-539 CNS): 3000 nM
- GI50 (SK-MEL-2 melanoma): 1600 nM
- TGI (SK-MEL-2 melanoma): 3170 nM
- GI50 (SK-MEL-28 melanoma): 1520 nM
- TGI (SK-MEL-28 melanoma): 2910 nM
- GI50 (SK-MEL-5 melanoma): 1460 nM
- TGI (SK-MEL-5 melanoma): 2910 nM
- GI50 (SN12C renal): 1700 nM
- TGI (SN12C renal): 3120 nM
- GI50 (SNB-19 CNS): 1620 nM
- TGI (SNB-19 CNS): 3020 nM
- GI50 (SNB-75 CNS): 1430 nM
- TGI (SNB-75 CNS): 2740 nM
- GI50 (TK-10 renal): 1720 nM
- TGI (TK-10 renal): 3200 nM
- GI50 (UACC-257 melanoma): 1350 nM
- TGI (UACC-257 melanoma): 2940 nM
- GI50 (UACC-62 melanoma): 1260 nM
- TGI (UACC-62 melanoma): 2550 nM
- GI50 (UO-31 renal): 1650 nM
- TGI (UO-31 renal): 3010 nM

Structure (SMILES): CC(C)Cc1ccc(C(C)C(=O)O)cc1 (stereo unspecified)
- TGI (NCI-H23 lung): > 100000 nM

Reference: PubChem BioAssay (NCI)
